# Experimental data: patent US20070274916A1, “Method for Identifying Compounds that Affect Expression of Tryptophan Hydroxylase Isoform 2” (priority 2003, published 2007)
# Entries after “also recorded” stand apart in the source; their conditions may differ.
# Tests used:
# TPH2 mRNA [1] = assay: TPH2 mRNA levels in murine raphe slice preparation of ovariectomized female mice by real-time RT-PCR; assay type: in vivo, mouse
# From the text: Female mice (13 to 16 wks of age) were ovariectomized (C57BL/6s from Charles River; ER Knockout animals from Taconic). Animals were fed a soy-free rodent chow and allowed a minimum of one week to recuperate from surgery and shipping. […] Approximately six hours following the fourth dose, mice were deeply anesthetized with ketamine/xylazine and brains were removed from the skull, placed ventral side up in a mouse brain block on ice, and ice-cold razor blades were inserted into the block at 1 mm intervals. The caudal extent of the hypothalamus was used as an anatomical marker for the placement of the first razor blade, and 4 blades were placed in sequential slots, caudally. The four sections were examined and the two that encompassed the greatest extent of the dorsal raphe were placed in a tube containing […] (Ambion, Austin, Tex.) and placed at 4° C. overnight. Brain slices were removed from […] after 24 hours and stored at −80° C. in fresh tubes.
# Two TPH2 primer and probe sets were generated for use in detecting TPH2 by real-time RT-PCR. Murine TPH2 forward primers were mTPH2-514F and mTPH2-1270F, their corresponding sequences are 5′-[…]-3′ (SEQ ID NO:7; corresponding to nucleotides 514 to 535 of the nucleotide sequence encoding TPH2) and 5′-[…]-3′ (SEQ ID NO:8; corresponding to nucleotides 1270 to 1290 of the nucleotide sequence encoding TPH2), respectively. The murine TPH2 reverse primers were mTPH2-585R and mTPH2-1344R, their corresponding sequences are 5′-[…]-3′ (SEQ ID NO:9; corresponding to nucleotides 567 to 585 of the nucleotide sequence encoding TPH2) and 5′-[…]-3′ (SEQ ID NO:10; corresponding to nucleotides 1324 to 1344 of the nucleotide sequence encoding TPH2), respectively. The murine TPH2 probes were mTPH2-565T and mTPH2-1292T, their corresponding sequences are: 5′-[…]-3′ (SEQ ID NO:11; corresponding to nucleotides 539 to 565 of the nucleotide sequence encoding TPH2) and 5′-[…]-3′ (SEQ ID NO:12; corresponding to nucleotides 1292 to 1317 of the nucleotide sequence encoding TPH2), respectively. The probes were labeled at the 5′ end with FAM and the 3′ end with TAMRA.
# Isolation of total RNA from mouse raphe slices for real-time PCR analysis using the TAQMAN ABI PRISMS 7700 Detection System, Applied Biosystems, Foster City, Calif. was as follows. Samples were stored in […] at 4° C. overnight followed by removal of […] and storage at −80° C. until isolation of the total RNA (2 slices weigh 25 to 50 mg). Slices were removed from −80° C. and placed in 1.0 mL TRIZOL Reagent in FASTPREP processing tubes. Slices were homogenized with one pass at setting 6 for 30 seconds in FASTPREP 120 homogenizer using LYSING MATRIX D tubes with bead matrix followed by 20 seconds at setting 6 after all samples had been processed. Samples were set at room temperature for 5 minutes to allow for complete dissociation of nucleoprotein complexes followed by centrifugation of the samples at 12,000×g for 5 minutes at 4° C. Homogenates were transferred to 1.5 mL; microcentrifuge tubes and 100 μL BCP (Bromo-3-chloropropane) was added. Samples were vortexed for 15 seconds and set at room temperature for 2 to 3 minutes. Samples were centrifuged at 12,000×g for 15 minutes at 4° C. The aqueous layer was removed and placed in a new RNAse-free sterile 1.5 mL microcentrifuge tube. Five μL of 5 mg/μL glycogen was added to each sample and the samples were vortexed. Five hundred μL of isopropanol was added to each sample. The samples were vortexed for 15 seconds, set at room temperature 10 minutes, followed by centrifugation at 12,000×g for 15 minutes at 4° C. Supernatants were decanted and pellets washed with 500 μL ice cold 75% ethanol.
# TPH2 mRNA [2] = assay: TPH2 mRNA levels in raphe slice preparations from intact male mice by real-time RT-PCR; assay type: in vivo, mouse
# Experimental: Ovariectomized C57/BL6 female mice (13 to 16 wks of age) were from Charles River Laboratories and intact C57/BL6 male mice (13 to 16 wks of age) were from Taconic Laboratories. Animals were fed a soy-free rodent chow and allowed a minimum of one week to recuperate from surgery and shipping. Mice were dosed subcutaneously in the morning (once daily for 4 days) with 0.1 cc of vehicle (sesame oil) or compound (dose is indicated for each experiment). Approximately six hours following the fourth dose, mice were deeply anesthetized with ketamine/xylazine.
# For real-time RT-PCR analyses brains were removed from the skull, placed ventral side up in a mouse brain block on ice, and ice-cold razor blades are inserted into the block at 1 mm intervals. The caudal extent of the hypothalamus was used as an anatomical marker for the placement of the first razor blade, and 4 blades are placed in sequential slots, caudally. The four sections are examined and the two that encompass the greatest extent of the dorsal raphe are placed in a tube containing RNA-later and placed at 4° C. overnight. Brain slices were removed from RNALATER (Ambion) after 24 hr and stored at −80° C. in fresh tubes. An n of seven animals was used per treatment group for real-time RT-PCR studies. For in situ hybridization histochemistry brains are removed from the skull and placed ventral side up on powdered dry ice and frozen brains are stored at −80° C. until sectioning. An n of 5 to 6 animals was used per treatment group for in situ hybridization histochemistry analyses.
# The murine TPH2 primers were mTPH2-514F and mTPH2-585R and the murine TPH2 probe was mTPH2-565T. mTPH2-565T was labeled with the fluorescent dye FAM and the quencher TAMRA.
# Isolation of total RNA from murine raphe slices for TAQMAN analysis has been described in Example 2. Genomic DNA was removed from the total RNA samples using the DNA-FREE kit (Ambion) and cDNA synthesis performed using Multiscribe RT and the TaqMan Gold RT reagents (ABI). Reverse transcription was halted by the addition of EDTA. Samples were transferred to a storage plate and stored at −20° C.
# Real-time PCR analyses using TAQMAN was as follows. A 2.5 μL of cDNA was added to each well of a 96well plate with 22.5 μl of TaqMan® reaction mix (1× Universal Master Mix (ABI), 20 nM forward and reverse 18S rRNA control primers, and 100 nM 18S rRNA control probe (ABI) and 300 nM mTPH2-514F and mTPH2-585R primers, 200 nM mTPH2-565T probe. Samples were run on an ABI PRISM 7700 Sequence Detection Instrument (Applied Biosystems (ABI), Foster City, Calif.) and collected data was analyzed using Merck Biometrics TAQMAN Plus program and statistical significance determined using a one-way ANOVA (CMG, Merck Biometrics).
smiles,measurement,setting,value
C[C@]12CC[C@@H]3c4ccc(O)cc4CC[C@H]3[C@@H]1CC[C@@H]2O [17β-estradiol],effect on expression of TPH2 mRNA in raphe slice,"TPH2 mRNA [1]; 0.025 to 0.2 mpk s.c. once daily for four days, FIG. 4C",no apparent effect
same,effect on TPH2 mRNA levels,TPH2 mRNA [2]; dose not stated,no effect
C[C@@H]1C[C@H]2[C@@H]3CCC4=CC(=O)C=C[C@]4(C)[C@@]3(F)[C@@H](O)C[C@]2(C)[C@@]1(O)C(=O)CO [dexamethasone],reduction in TPH2 mRNA levels,"TPH2 mRNA [1]; 0.1 mg/kg s.c. once daily for four days, FIG. 14",23%
same,reduction in TPH2 message levels,"TPH2 mRNA [1]; 1 mg/kg once daily for four days, FIG. 14",30%
same,reduction in TPH2 mRNA levels,"TPH2 mRNA [1]; 3 mg/kg s.c. once daily for four days, FIG. 14",44%
same,reduction in TPH2 mRNA levels,"TPH2 mRNA [1]; dexamethasone 3 mg/kg once daily for four days, FIG. 9",40%
same,reduction in TPH2 mRNA levels,"TPH2 mRNA [2]; 1 mpk once daily for four days, FIG. 15",26%
CC#C[C@]1(O)CC[C@H]2[C@@H]3CCC4=CC(=O)CCC4=C3[C@@H](c3ccc(N(C)C)cc3)C[C@@]21C [mifepristone],effect on TPH2 mRNA expression compared to vehicle,"TPH2 mRNA [1]; RU486 10 mpk once daily, TPH2-514 or TPH2-1270 primer/probe set, FIG. 7, 10 mg/kg",decrease; also recorded: significant reduction
same,effect on TPH2 mRNA expression,"TPH2 mRNA [1]; RU486 20 mpk once daily, TPH2-514 primer/probe set, FIG. 8, 20 mg/kg",further reduction; also recorded: significant reduction
same,glucocorticoid agonist/antagonist character shown by TPH2 mRNA expression,"TPH2 mRNA [1]; alone and mixed with dexamethasone, Example 2",mixed or partial agonist
same,effect on the dexamethasone reduction of TPH2 mRNA levels,"TPH2 mRNA [1]; co-administered with 3 mg/kg dexamethasone, ovariectomized female mice, FIG. 9, 3 mg/kg",blocked; also recorded: antagonizes
same,reduction in TPH2 mRNA levels,"TPH2 mRNA [1]; mifepristone alone, 20 mg/kg, FIG. 9",28%
same,effect on the dexamethasone reduction of TPH2 mRNA levels,"TPH2 mRNA [2]; co-administered with 1 mg/kg dexamethasone, FIG. 15, 1 mg/kg",blocked; also recorded: antagonizes
same,effect on TPH2 message levels,"TPH2 mRNA [2]; mifepristone alone, 30 mg/kg",no effect
